molecular target: CETP (Homo sapiens (Human), UniProt P11597); assay: Test for inhibition of cholesteryl ester transfer (in vitro); assay type: biochemical; details: human plasma as CETP source, LDL from healthy persons as acceptor, rHDL-agarose donor, 37° C.
From the text: Test for Inhibition of Cholesteryl Ester Transfer (In Vitro)
1. Construction of Cholesteryl Ester Donor
To construct a cholesteryl ester donor to be used in the test, radiolabeled recombinant HDL containing […] (GE healthcare, TRK886, 3.5 μCi/mg of apoA-1) and apoA-1 was synthesized. Then, rHDL-agarose having the recombinant HDL immobilized thereon by CNBr-activated Sepharose 4B (Amersham Biosciences, Sweden) resin was used in the test.
2. Cholesteryl Ester Transfer Test
As a protein source for cholesteryl ester transfer, plasma from healthy persons was used, and as a cholesteryl ester receptor, LDL from healthy persons was used. Samples were treated with each test compound to final concentrations of 16, 80, 400, 2000 and 10000 nM and analyzed in duplicate. For the cholesteryl ester transfer test, 20 μl of plasma, 50 μl of LDL (0.25 mg/ml) and 50 μl of rHDL-agarose (0.25 mg/ml) were added, and a solution containing a test compound was added, followed by reaction at 37° C. Then, centrifugation was performed at 4° C. for 3 minutes to stop the reaction, and 150 μl of the supernatant was taken and transferred to a 96-well plate for radioactivity measurement, and the radioactivity of the plate was measured with a beta-ray detector.
3. Statistical Processing
The ratio of [^3H]-cholesteryl oleate from HDL to LDL was calculated and used as a result value, and from the result value, IC50 value was calculated using GraphPad Prism 5.0.

Sequence of CETP (P11597 18-493): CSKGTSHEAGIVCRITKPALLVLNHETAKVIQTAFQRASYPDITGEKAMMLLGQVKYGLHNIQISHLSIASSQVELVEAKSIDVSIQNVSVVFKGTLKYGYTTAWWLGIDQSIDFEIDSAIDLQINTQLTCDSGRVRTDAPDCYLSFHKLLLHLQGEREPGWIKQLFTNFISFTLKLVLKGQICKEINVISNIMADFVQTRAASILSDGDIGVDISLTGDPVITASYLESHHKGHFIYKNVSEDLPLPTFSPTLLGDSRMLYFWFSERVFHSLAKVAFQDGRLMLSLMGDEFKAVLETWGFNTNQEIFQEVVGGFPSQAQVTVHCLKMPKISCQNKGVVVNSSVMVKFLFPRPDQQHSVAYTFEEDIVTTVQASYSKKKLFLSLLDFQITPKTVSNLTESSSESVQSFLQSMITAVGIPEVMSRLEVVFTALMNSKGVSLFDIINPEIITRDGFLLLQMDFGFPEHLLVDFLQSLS

`Cc1cc(C(=O)O)ccc1-c1ccc(Cl)c(C2=C(CN3C(=O)O[C@H](c4cc(C(F)(F)F)cc(C(F)(F)F)c4)[C@@H]3C)CC(C)(C)CC2)c1` [Compound 727, 3′-(2-(((4S,5R)-5-(3,5-bis(trifluoromethyl)phenyl)-4-methyl-2-oxooxazolidin-3-yl)methyl)-4,4-dimethylcyclohex-1-enyl)-4′-chloro-2-methylbiphenyl-4-carboxylic acid] and `Cc1cc(C(=O)O)ccc1-c1cc(C2=C(CN3C(=O)O[C@H](c4cc(C(F)(F)F)cc(C(F)(F)F)c4)[C@@H]3C)CC(C)(C)CC2)ccc1C` [Compound 677, 5′-(2-(((4S,5R)-5-(3,5-bis(trifluoromethyl)phenyl)-4-methyl-2-oxooxazolidin-3-yl)methyl)-4,4-dimethylcyclohex-1-enyl)-2,2′-dimethylbiphenyl-4-carboxylic acid] are within 1.5-fold of each other in IC50: 11.4 nM for the first, 15.9 nM for the second.

Going from `COc1cc(C)c(-c2ccc(C(=O)O)cc2)cc1C1=C(CN2C(=O)O[C@H](c3cc(C(F)(F)F)cc(C(F)(F)F)c3)[C@@H]2C)CC(C)(C)CC1` [Compound 620, 5′-(2-(((4S,5R)-5-(3,5-bis(trifluoromethyl)phenyl)-4-methyl-2-oxooxazolidin-3-yl)methyl)-4,4-dimethylcyclohex-1-enyl)-4′-methoxy-2′-methylbiphenyl-4-carboxylic acid] to `COc1ccc(-c2ccc(C(=O)O)cc2OC)cc1C1=C(CN2C(=O)O[C@H](c3cc(C(F)(F)F)cc(C(F)(F)F)c3)[C@@H]2C)CC(C)(C)CC1` [Compound 597, 3′-(2-(((4S,5R)-5-(3,5-bis(trifluoromethyl)phenyl)-4-methyl-2-oxooxazolidin-3-yl)methyl)-4,4-dimethylcyclohex-1-enyl)-2,4′-dimethoxybiphenyl-4-carboxylic acid], the IC50 rises from 11.6 nM to 50.2 nM (4.3-fold).

Going from `COc1cc(C2=C(CN3C(=O)O[C@H](c4cc(C(F)(F)F)cc(C(F)(F)F)c4)[C@@H]3C)CC(C)(C)CC2)cc(-c2ccc(C(=O)O)cc2C)c1` [Compound 689, 3′-(2-(((4S,5R)-5-(3,5-bis(trifluoromethyl)phenyl)-4-methyl-2-oxooxazolidin-3-yl)methyl)-4,4-dimethylcyclohex-1-enyl)-5′-methoxy-2-methylbiphenyl-4-carboxylic acid] to `Cc1cc(C(=O)O)ccc1-c1cccc(C2=C(CN3C(=O)O[C@H](c4cc(C(F)(F)F)cc(C(F)(F)F)c4)[C@@H]3C)CC(C)(C)CC2)c1` [Compound 651, 3′-(2-(((4S,5R)-5-(3,5-bis(trifluoromethyl)phenyl)-4-methyl-2-oxooxazolidin-3-yl)methyl)-4,4-dimethylcyclohex-1-enyl)-2-methylbiphenyl-4-carboxylic acid], the IC50 falls from 24.3 nM to 10.7 nM (2.3-fold). The second is the more potent here.

Going from `C[C@H]1[C@@H](c2cc(C(F)(F)F)cc(C(F)(F)F)c2)OC(=O)N1CC1=C(c2ccc(F)c(-c3ccc(C(=O)O)cc3C(F)(F)F)c2)CCC(C)(C)C1` [Compound 723, 5′-(2-(((4S,5R)-5-(3,5-bis(trifluoromethyl)phenyl)-4-methyl-2-oxooxazolidin-3-yl)methyl)-4,4-dimethylcyclohex-1-enyl)-2′-fluoro-2-(trifluoromethyl)biphenyl-4-carboxylic acid] to `C[C@H]1[C@@H](c2cc(C(F)(F)F)cc(C(F)(F)F)c2)OC(=O)N1CC1=C(c2cc(-c3ccc(C(=O)O)cc3Cl)ccc2F)CCC(C)(C)C1` [Compound 739, 3′-(2-(((4S,5R)-5-(3,5-bis(trifluoromethyl)phenyl)-4-methyl-2-oxooxazolidin-3-yl)methyl)-4,4-dimethylcyclohex-1-enyl)-2-chloro-4′-fluorobiphenyl-4-carboxylic acid], the IC50 rises from 9.6 nM to 20.3 nM (2.1-fold).

First: COc1cc(C(F)(F)F)c(-c2ccc(C(=O)O)c(F)c2)cc1C1=C(CN2C(=O)O[C@H](c3cc(C(F)(F)F)cc(C(F)(F)F)c3)[C@@H]2C)CC(C)(C)CC1 [Compound 614, 5′-(2-(((4S,5R)-5-(3,5-bis(trifluoromethyl)phenyl)-4-methyl-2-oxooxazolidin-3-yl)methyl)-4,4-dimethylcyclohex-1-enyl)-3-fluoro-4′-methoxy-2′-(trifluoromethyl)biphenyl-4-carboxylic acid]
Second: COc1cc(C(F)(F)F)c(-c2ccc(C(=O)O)cc2C)cc1C1=C(CN2C(=O)O[C@H](c3cc(C(F)(F)F)cc(C(F)(F)F)c3)[C@@H]2C)CC(C)(C)CC1 [Compound 616, 5′-(2-(((4S,5R)-5-(3,5-bis(trifluoromethyl)phenyl)-4-methyl-2-oxooxazolidin-3-yl)methyl)-4,4-dimethylcyclohex-1-enyl)-4′-methoxy-2-methyl-2′-(trifluoromethyl)biphenyl-4-carboxylic acid]
The IC50 of the first is 3.6-fold higher: 27 nM for the first, 7.6 nM for the second.

`C[C@H]1[C@@H](c2cc(C(F)(F)F)cc(C(F)(F)F)c2)OC(=O)N1CC1=C(c2cc(-c3ccc(C(=O)O)cc3F)cc(C(F)(F)F)c2)CCC(C)(C)C1` [Compound 748, 3′-(2-(((4S,5R)-5-(3,5-bis(trifluoromethyl)phenyl)-4-methyl-2-oxooxazolidin-3-yl)methyl)-4,4-dimethylcyclohex-1-enyl)-2-fluoro-5′-(trifluoromethyl)biphenyl-4-carboxylic acid] and `COc1ccc(-c2ccc(C(=O)O)cc2F)cc1C1=C(CN2C(=O)O[C@H](c3cc(C(F)(F)F)cc(C(F)(F)F)c3)[C@@H]2C)CC(C)(C)CC1` [Compound 561, 3′-(2-(((4S,5R)-5-(3,5-bis(trifluoromethyl)phenyl)-4-methyl-2-oxooxazolidin-3-yl)methyl)-4,4-dimethylcyclohex-1-enyl)-2-fluoro-4′-methoxybiphenyl-4-carboxylic acid] are within 1.5-fold of each other in IC50: 15.9 nM for the first, 23.2 nM for the second.

`COc1ncc(-c2ccc(C(=O)O)c(F)c2F)cc1C1=C(CN2C(=O)O[C@H](c3cc(C(F)(F)F)cc(C(F)(F)F)c3)[C@@H]2C)CC(C)(C)CC1` [Compound 596, 4-(3-(2-(((4S,5R)-5-(3,5-bis(trifluoromethyl)phenyl)-4-methyl-2-oxooxazolidin-3-yl)methyl)-4,4-dimethylcyclohex-1-enyl)-2-methoxypyridin-5-yl)-2,3-difluorobenzoic acid] and `COc1ncc(-c2ccc(C(=O)O)cc2C(C)C)cc1C1=C(CN2C(=O)O[C@H](c3cc(C(F)(F)F)cc(C(F)(F)F)c3)[C@@H]2C)CC(C)(C)CC1` [Compound 578, 4-(3-(2-(((4S,5R)-5-(3,5-bis(trifluoromethyl)phenyl)-4-methyl-2-oxooxazolidin-3-yl)methyl)-4,4-dimethylcyclohex-1-enyl)-2-methoxypyridin-5-yl)-3-isopropylbenzoic acid] are within 1.5-fold of each other in IC50: 17.9 nM for the first, 12.6 nM for the second.

First: COC(=O)c1ccc(-c2cnc(OC)c(C3=C(CN4C(=O)O[C@H](c5cc(C(F)(F)F)cc(C(F)(F)F)c5)[C@@H]4C)CC(C)(C)CC3)c2)c(C)c1 [Compound 555, methyl 4-(3-(2-(((4S,5R)-5-(3,5-bis(trifluoromethyl)phenyl)-4-methyl-2-oxooxazolidin-3-yl)methyl)-4,4-dimethylcyclohex-1-enyl)-2-methoxypyridin-5-yl)-3-methylbenzoate]
Second: COc1ccc(-c2ccc(C(=O)O)cc2C(F)(F)F)nc1C1=C(CN2C(=O)O[C@H](c3cc(C(F)(F)F)cc(C(F)(F)F)c3)[C@@H]2C)CC(C)(C)CC1 [Compound 764, 4-(2-(2-(((4S,5R)-5-(3,5-bis(trifluoromethyl)phenyl)-4-methyl-2-oxooxazolidin-3-yl)methyl)-4,4-dimethylcyclohex-1-enyl)-3-methoxypyridin-6-yl)-3-(trifluoromethyl)benzoic acid]
The IC50 of the first is 3.2-fold higher: 28.4 nM for the first, 8.9 nM for the second. The second is the more potent here.
